Measurements: patent publication US20050112573A1, “Method of detecting toxic substance” (priority 2001, published 2005)

System: yeast genes (level of expressed mRNA)
Assay: DNA chip analysis of expressed mRNA of yeast genes after 2 h culture with a toxic chemical substance
Format: cell-based, Saccharomyces cerevisiae S288C
Description: Yeast (Saccharomyces cerevtisiae S288C (α SUC2mal mel gap2 CUP1)) were cultured at 25° C. on YPD medium (yeast extract 1%, polypepton 2%, glucose 2%). One of toxic chemical substances was added to the cell at logarithmic growth phase, and the cell was further cultured for two hours. Cell was cultured without any chemical substance in the same condition, and was used as control. Concentrations of the chemical substances were defined to inhibit the growth of the yeast but not lead to death.
After the completion of cultivation, the culture was centrifuged to collect the cells. To the cells, sodium acetate buffer (50 mM sodium acetate, 10 mM EDTA, 1% SDS) was added, and the mixture was shaken at 65° C. for five minutes, followed by returning to room temperature, and obtaining the supernatant, which procedure was repeated two times. To the supernatant, ½ amount of a solution of phenol/chloroform was added, and the mixture was centrifuged to give a supernatant, which was added with an equal amount of chloroform, and the mixture was centrifuged to give a supernatant. To the supernatant, an equal amount of isopropanol containing 0.3 M sodium acetate was added, and the mixture was allowed to stand at room temperature for 30 minutes, after which the mixture was centrifuged to give a sediment of the whole RNAs. Seventy % ethanol was added to the sediment, and the mixture was again centrifuged to give a sediment, which was then dried and dissolved in water. mRNA was isolated from the whole RNAs as followings. In view of the fact that a poly A chain is attached to the 3′ terminus of mRNA, a polynucleotide having a poly T structure which was immobilized on the surface of latex beads was used to trap the mRNA, and then the mRNA was washed and eluted with spine column (Oligotex-dT30<Super>mRNA Purification Kit, Takara). Reverse transcription of the mRNA was conducted with a reverse transcriptase (Super Script II Reverse Transcriptase; catalogue No. 18064-014, GibcoBRL) using fluorescence-labeled nucleotides to give cDNAs that were introduced with Cy3-dUTP or Cy5-dUTP during the reverse transcription.
The labeled cDNAs were dissolved in TE buffer (10 mM Tris-HCl/1 mM EDTA, pH8.0), and the solution was dropped on the DNA chip containing the whole genes of yeast (DNA Chip Research Inc. Japan) so that the cDNAs were hybridized on the DNA chip at 65° C. for over 12 hours. The fluoresces intensity of the DNA chip was read with a scanner, and the ratio relative to the fluorescence intensity resulting from the absence of chemical substance was estimated as the following, which is shown in Tables 1 to 9: [formula]
In the Tables, “Intensity” indicated in the rightmost column is a value of the level of expressed mRNA of each gene in control cells as divided by the average level of the expressions of the whole genes.

## CdCl2 [(2)]
Yeast gene YFL010C, ratio to control without chemical substance, 2 h culture
  The level of expressed mRNA in the presence of chemical substance/: 4.8
Yeast gene YFL024C, ratio to control without chemical substance, 2 h culture
  The level of expressed mRNA in the presence of chemical substance/: 1.1
Yeast gene YFL028C
  The level of expressed mRNA in the presence of chemical substance/The level of expressed mRNA in the absence of chemical substance: 1.1
Yeast gene YFL032W, ratio to control without chemical substance, 2 h culture
  The level of expressed mRNA in the presence of chemical substance/: 1.5
Yeast gene YFL043C
  The level of expressed mRNA in the presence of chemical substance/The level of expressed mRNA in the absence of chemical substance: 1.2
Yeast gene YGL035C
  The level of expressed mRNA in the presence of chemical substance/in the absence of chemical substance: 1.4
Yeast gene YGL037C, ratio to control without chemical substance, 2 h culture
  The level of expressed mRNA in the presence of chemical substance/: 2.7
Yeast gene YGL047W, ratio to control without chemical substance, 2 h culture
  The level of expressed mRNA in the presence of chemical substance/: 1.9
Yeast gene YGL053W, ratio to control without chemical substance, 2 h culture
  The level of expressed mRNA in the presence of chemical substance/: 1.5
Yeast gene YGL121C, ratio to control without chemical substance, 2 h culture
  The level of expressed mRNA in the presence of chemical substance/: 5.0
Yeast gene YGL158W
  The level of expressed mRNA in the presence of chemical substance/The level of expressed mRNA in the absence of chemical substance: 2.8
Yeast gene YGL199C, ratio to control without chemical substance, 2 h culture
  The level of expressed mRNA in the presence of chemical substance/: 1.7
Yeast gene YGL229C
  The level of expressed mRNA in the presence of chemical substance/The level of expressed mRNA in the absence of chemical substance: 0.7
Yeast gene YGR101W, ratio to control without chemical substance, 2 h culture
  The level of expressed mRNA in the presence of chemical substance/: 1.3
Yeast gene YGR110W, ratio to control without chemical substance, 2 h culture
  The level of expressed mRNA in the presence of chemical substance/: 3.1
Yeast gene YGR130C, ratio to control without chemical substance, 2 h culture
  The level of expressed mRNA in the presence of chemical substance/: 0.7
Yeast gene YGR136W
  The level of expressed mRNA in the presence of chemical substance/The level of expressed mRNA in the absence of chemical substance: 1.2
Yeast gene YGR154C, ratio to control without chemical substance, 2 h culture
  The level of expressed mRNA in the presence of chemical substance/: 2.9
Yeast gene YGR189C
  The level of expressed mRNA in the presence of chemical substance/The level of expressed mRNA in the absence of chemical substance: 0.9
Yeast gene YGR213C
  The level of expressed mRNA in the presence of chemical substance/The level of expressed mRNA in the absence of chemical substance: 2.9
Yeast gene YGR221C, ratio to control without chemical substance, 2 h culture
  The level of expressed mRNA in the presence of chemical substance/: 2.2
Yeast gene YGR257C
  The level of expressed mRNA in the presence of chemical substance/The level of expressed mRNA in the absence of chemical substance: 0.8
Yeast gene YGR287C
  The level of expressed mRNA in the presence of chemical substance/in the absence of chemical substance: 1.0
Yeast gene YHR004C
  The level of expressed mRNA in the presence of chemical substance/The level of expressed mRNA in the absence of chemical substance: 1.1
Yeast gene YHR071W
  The level of expressed mRNA in the presence of chemical substance/The level of expressed mRNA in the absence of chemical substance: 1.1
Yeast gene YHR138C, ratio to control without chemical substance, 2 h culture
  The level of expressed mRNA in the presence of chemical substance/: 1.8
Yeast gene YHR139C
  The level of expressed mRNA in the presence of chemical substance/The level of expressed mRNA in the absence of chemical substance: 4.6
Yeast gene YHR142W
  The level of expressed mRNA in the presence of chemical substance/The level of expressed mRNA in the absence of chemical substance: 0.8
Yeast gene YHR199C, ratio to control without chemical substance, 2 h culture
  The level of expressed mRNA in the presence of chemical substance/: 2.0
Yeast gene YIL023C, ratio to control without chemical
  The level of expressed mRNA in the presence of chemical substance/: 1.2
Yeast gene YIL041W, ratio to control without chemical substance, 2 h culture
  The level of expressed mRNA in the presence of chemical substance/: 1.2
Yeast gene YIL087C, ratio to control without chemical substance, 2 h culture
  The level of expressed mRNA in the presence of chemical substance/: 1.9
Yeast gene YIL123W
  The level of expressed mRNA in the presence of chemical substance/The level of expressed mRNA in the absence of chemical substance: 0.5
Yeast gene YIL140W
  The level of expressed mRNA in the presence of chemical substance/The level of expressed mRNA in the absence of chemical substance: 1.0
Yeast gene YJL057C, ratio to control without chemical substance, 2 h culture
  The level of expressed mRNA in the presence of chemical substance/: 1.2
Yeast gene YJL066C, ratio to control without chemical substance, 2 h culture
  The level of expressed mRNA in the presence of chemical substance/: 1.2
Yeast gene YJL070C
  The level of expressed mRNA in the presence of chemical substance/in the absence of chemical substance: 0.9
Yeast gene YJL073W
  The level of expressed mRNA in the presence of chemical substance/The level of expressed mRNA in the absence of chemical substance: 0.8
Yeast gene YJL082W, ratio to control without chemical substance, 2 h culture
  The level of expressed mRNA in the presence of chemical substance/: 0.8
Yeast gene YJL089W
  The level of expressed mRNA in the presence of chemical substance/The level of expressed mRNA in the absence of chemical substance: 1.5
Yeast gene YJL116C
  The level of expressed mRNA in the presence of chemical substance/The level of expressed mRNA in the absence of chemical substance: 1.8
Yeast gene YJL151C, ratio to control without chemical substance, 2 h culture
  The level of expressed mRNA in the presence of chemical substance/: 2.4
Yeast gene YJL152W, ratio to control without chemical substance, 2 h culture
  The level of expressed mRNA in the presence of chemical substance/: 1.5
Yeast gene YJL161W, ratio to control without chemical substance, 2 h culture
  The level of expressed mRNA in the presence of chemical substance/: 2.2
Yeast gene YJL167W
  The level of expressed mRNA in the presence of chemical substance/in the absence of chemical substance: 1.4
Yeast gene YJL171C, ratio to control without chemical substance, 2 h culture
  The level of expressed mRNA in the presence of chemical substance/: 0.7
Yeast gene YJL216C
  The level of expressed mRNA in the presence of chemical substance/in the absence of chemical substance: 4.7
Yeast gene YJR004C
  The level of expressed mRNA in the presence of chemical substance/The level of expressed mRNA in the absence of chemical substance: 0.8
Yeast gene YJR008W, ratio to control without chemical substance, 2 h culture
  The level of expressed mRNA in the presence of chemical substance/: 1.5
Yeast gene YJR054W, ratio to control without chemical
  The level of expressed mRNA in the presence of chemical substance/: 0.9
Yeast gene YJR086W
  The level of expressed mRNA in the presence of chemical substance/The level of expressed mRNA in the absence of chemical substance: 1.1
Yeast gene YKL008C
  The level of expressed mRNA in the presence of chemical substance/The level of expressed mRNA in the absence of chemical substance: 0.6
Yeast gene YKL013C
  The level of expressed mRNA in the presence of chemical substance/The level of expressed mRNA in the absence of chemical substance: 0.9
Yeast gene YKL039W
  The level of expressed mRNA in the presence of chemical substance/The level of expressed mRNA in the absence of chemical substance: 1.1
Yeast gene YKL041W
  The level of expressed mRNA in the presence of chemical substance/The level of expressed mRNA in the absence of chemical substance: 0.8
Yeast gene YKL071W, ratio to control without chemical substance, 2 h culture
  The level of expressed mRNA in the presence of chemical substance/: 3.8
